Experimental data reported in PubChem BioAssay AID256 (DTP/NCI, 2004).
“And” between values parts separate entries of the source, which are not always exact repeats. Identical values can stand only once. Toxic doses and inconclusive results are not listed. How the source made its calls: active means survival T/C of 150% or more; inactive means T/C below 125% in these data.

System: CD2F1 mice, L1210 leukemia ip, survival T/C
Test: NCI In Vivo Anticancer Drug Screen. Data for tumor model L1210 Leukemia (intraperitoneal) in CD2F1 (CDF1) mice
Conditions: endpoint: mean survival time, higher = longer survival
Outline: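 In this screen, transplantable tumors were grown in mice given either the compound or its vehicle. Results were expressed as the treated measurement relative to the control measurement.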

[1] = dose: 100.0 mg/kg/injection, schedule: Q01DX001 (ip), vehicle: saline with Tween-80
[2] = dose: 200.0 mg/kg/injection, schedule: Q01DX001 (ip), vehicle: saline with Tween-80
[3] = dose: 100.0 mg/kg/injection, schedule: Q01DX009 (ip), vehicle: saline with Tween-80
[4] = dose: 200.0 mg/kg/injection, schedule: Q01DX009 (ip), vehicle: saline with Tween-80
[5] = dose: 400.0 mg/kg/injection, schedule: Q01DX009 (ip), vehicle: saline with Tween-80
[6] = dose: 100.0 mg/kg/injection, schedule: Q04DX003 (ip), vehicle: saline with Tween-80
[7] = dose: 200.0 mg/kg/injection, schedule: Q04DX003 (ip), vehicle: saline with Tween-80
[8] = dose: 400.0 mg/kg/injection, schedule: Q04DX003 (ip), vehicle: saline with Tween-80
[9] = dose: 100.0 mg/kg/injection, schedule: Q04DX002 (ip), vehicle: saline with Tween-80
[10] = dose: 200.0 mg/kg/injection, schedule: Q04DX002 (ip), vehicle: saline with Tween-80
[11] = dose: 25.0 mg/kg/injection, schedule: Q04DX003 (ip), vehicle: saline with Tween-80
[12] = dose: 50.0 mg/kg/injection, schedule: Q01DX009 (ip), vehicle: saline with Tween-80
[13] = dose: 50.0 mg/kg/injection, schedule: Q04DX003 (ip), vehicle: saline with Tween-80
[14] = dose: 6.25 mg/kg/injection, schedule: Q01DX009 (ip), vehicle: saline with Tween-80
[15] = dose: 12.5 mg/kg/injection, schedule: Q01DX009 (ip), vehicle: saline with Tween-80
[16] = dose: 25.0 mg/kg/injection, schedule: Q01DX009 (ip), vehicle: saline with Tween-80

Measured: T/C

NCCc1nc[nH]c1[N+](=O)[O-]
inactive: dose: 12.5 mg/kg/injection, schedule: Q01DX005 (ip), vehicle: water 106 % of control | dose: 25.0 mg/kg/injection, schedule: Q01DX005 (ip), vehicle: water 97 % of control | dose: 50.0 mg/kg/injection, schedule: Q01DX005 (ip), vehicle: water 97 % of control | dose: 100.0 mg/kg/injection, schedule: Q01DX005 (ip), vehicle: water 103 % of control | dose: 200.0 mg/kg/injection, schedule: Q01DX005 (ip), vehicle: water 92 % of control

C1CCC(N(C2CCCCC2)C2CCCCC2)CC1
inactive: [1] 107 % of control | [2] 104 % of control | dose: 300.0 mg/kg/injection, schedule: Q01DX001 (ip), vehicle: saline with Tween-80 96 % of control

Cc1ccc(S(=O)(=O)/C=C(/SC#N)C2CCCCC2)cc1
inactive: [3] 96 % of control | [4] 100 % of control | [5] 102 % of control

COC1=CC(c2ccccc2[N+](=O)[O-])OC1=O (stereo unspecified)
inactive: [3] 97 % of control | [6] 96 % of control | [4] 91 % of control | [7] 91 % of control | [5] 91 % of control | [8] 93 % of control

COc1ccccc1NC(=O)NCCN(C)c1ccccc1
inactive: [9] 88 % of control | [10] 88 % of control

CCOC(=O)c1ccc(NC(=O)Nc2ccc(Nc3ccccc3)cc2)cc1
inactive: [11] 96 % of control | [12] 96 % of control and 102 % of control | [13] 91 % of control | [1] 100 % of control | [3] 96 % of control and 102 % of control | [9] 86 % of control and 97 % of control | [6] 92 % of control | [2] 94 % of control | [4] 95 % of control and 98 % of control | [10] 87 % of control and 91 % of control | dose: 400.0 mg/kg/injection, schedule: Q01DX001 (ip), vehicle: saline with Tween-80 103 % of control | dose: 400.0 mg/kg/injection, schedule: Q04DX002 (ip), vehicle: saline with Tween-80 87 % of control

OCC1C2C=CC1CC2 (stereo unspecified)
inactive: [6] 95 % of control | [7] 96 % of control | [8] 96 % of control

O=P(Oc1ccccc1)(Oc1ccccc1)C(Nc1ccccc1)c1ccncc1 (stereo unspecified)
inactive: [6] 93 % of control | [7] 100 % of control | [8] 102 % of control

Cc1ccc2cc3c(ccc4ccccc43)c3c2c1CC3
inactive: [12] 93 % of control | [3] 110 % of control | [4] 97 % of control | [5] 100 % of control

CN1CCC(c2ccccc2)(c2ccccc2)OC1c1ccccc1 (stereo unspecified)
inactive: [6] 101 % of control | [7] 100 % of control | [8] 94 % of control

CCN(CC)CCN(C)C(=O)C(O)(c1ccccc1)c1ccccc1
inactive: dose: 75.0 mg/kg/injection, schedule: Q01DX001 (ip), vehicle: saline 100 % of control | dose: 150.0 mg/kg/injection, schedule: Q01DX001 (ip), vehicle: saline 103 % of control | dose: 300.0 mg/kg/injection, schedule: Q01DX001 (ip), vehicle: saline 102 % of control

CC(C)N1C(=O)C=C(c2ccc([N+](=O)[O-])cc2)C1=O
inactive: [14] 93 % of control | [15] 95 % of control | [16] 95 % of control | [12] 95 % of control

Cc1ccc(NC(=O)Oc2ccc(C(C)(C)C)cc2Br)c(C)c1
inactive: [12] 101 % of control | [3] 96 % of control | [4] 116 % of control

Nc1cc(Cl)c(Cl)cc1Cl
inactive: [12] 93 % of control | [3] 106 % of control | [6] 100 % of control | [4] 95 % of control | [7] 94 % of control | [5] 108 % of control

O=[N+]([O-])CC1CCCCC1O (stereo unspecified)
inactive: [14] 89 % of control | dose: 6.25 mg/kg/injection, schedule: Q04DX003 (ip), vehicle: saline with Tween-80 102 % of control | [15] 91 % of control | dose: 12.5 mg/kg/injection, schedule: Q04DX003 (ip), vehicle: saline with Tween-80 96 % of control | [16] 94 % of control | [11] 93 % of control

CC(=O)/C(C#N)=C(\C)N
inactive: dose: 50.0 mg/kg/injection, schedule: Q04DX002 (ip), vehicle: saline 103 % of control | dose: 100.0 mg/kg/injection, schedule: Q04DX002 (ip), vehicle: saline 103 % of control | dose: 200.0 mg/kg/injection, schedule: Q04DX002 (ip), vehicle: saline 103 % of control

CCCCN(CCCC)CC(O)c1ccccc1 (stereo unspecified)
inactive: [9] 88 % of control

Cc1c([C@H](C)[C@@H]2NC[C@@H](C)C[C@H]2O)ccc2c1C[C@H]1[C@H]2CC=C2C[C@@H](O)CC[C@@]21C
inactive: dose: 2.5 mg/kg/injection, schedule: Q01DX009 (ip), vehicle: Klucel (hydroxypropylcellulose) (HPC) 96 % of control | dose: 5.0 mg/kg/injection, schedule: Q01DX009 (ip), vehicle: Klucel (hydroxypropylcellulose) (HPC) 102 % of control

CCc1c(C)c(C)cc(S(=O)(=O)O)c1C
inactive: [12] 104 % of control | [3] 93 % of control | [6] 101 % of control | [4] 89 % of control | [7] 87 % of control

CC[N-]c1nncs1.CC[N-]c1nncs1.CC[N-]c1nncs1.CC[N-]c1nncs1.[Cl][Rh][Cl]
inactive: dose: 3.13 mg/kg/injection, schedule: Q04DX003 (ip), vehicle: distilled water + Tween-80 104 % of control | dose: 6.25 mg/kg/injection, schedule: Q04DX003 (ip), vehicle: distilled water + Tween-80 98 % of control | dose: 12.5 mg/kg/injection, schedule: Q04DX003 (ip), vehicle: distilled water + Tween-80 96 % of control | dose: 25.0 mg/kg/injection, schedule: Q04DX003 (ip), vehicle: distilled water + Tween-80 90 % of control | dose: 50.0 mg/kg/injection, schedule: Q04DX003 (ip), vehicle: distilled water + Tween-80 98 % of control

CN(CCCOS(C)(=O)=O)CCCN(C)CCCOS(C)(=O)=O
inactive: dose: 10.0 mg/kg/injection, schedule: Q01DX001 (ip), vehicle: saline 115 % of control | dose: 20.0 mg/kg/injection, schedule: Q01DX001 (ip), vehicle: saline 107 % of control | dose: 40.0 mg/kg/injection, schedule: Q01DX001 (ip), vehicle: saline 115 % of control | dose: 60.0 mg/kg/injection, schedule: Q01DX001 (ip), vehicle: saline 124 % of control | dose: 80.0 mg/kg/injection, schedule: Q01DX001 (ip), vehicle: saline 115 % of control | dose: 100.0 mg/kg/injection, schedule: Q01DX001 (ip), vehicle: saline 117 % of control

CC(=O)NC/C(C)=N/Nc1ccc([N+](=O)[O-])cc1[N+](=O)[O-]
inactive: [11] 93 % of control | [13] 87 % of control | [6] 91 % of control
